Read-outs that look alike come from different tables or passages of the source.
Molecular target: T1, human T1R3 receptor (Homo sapiens, UniProt Q7RTX0)
T1 construct: expressed in transfected cells
T1 sequence (Q7RTX0 21-852): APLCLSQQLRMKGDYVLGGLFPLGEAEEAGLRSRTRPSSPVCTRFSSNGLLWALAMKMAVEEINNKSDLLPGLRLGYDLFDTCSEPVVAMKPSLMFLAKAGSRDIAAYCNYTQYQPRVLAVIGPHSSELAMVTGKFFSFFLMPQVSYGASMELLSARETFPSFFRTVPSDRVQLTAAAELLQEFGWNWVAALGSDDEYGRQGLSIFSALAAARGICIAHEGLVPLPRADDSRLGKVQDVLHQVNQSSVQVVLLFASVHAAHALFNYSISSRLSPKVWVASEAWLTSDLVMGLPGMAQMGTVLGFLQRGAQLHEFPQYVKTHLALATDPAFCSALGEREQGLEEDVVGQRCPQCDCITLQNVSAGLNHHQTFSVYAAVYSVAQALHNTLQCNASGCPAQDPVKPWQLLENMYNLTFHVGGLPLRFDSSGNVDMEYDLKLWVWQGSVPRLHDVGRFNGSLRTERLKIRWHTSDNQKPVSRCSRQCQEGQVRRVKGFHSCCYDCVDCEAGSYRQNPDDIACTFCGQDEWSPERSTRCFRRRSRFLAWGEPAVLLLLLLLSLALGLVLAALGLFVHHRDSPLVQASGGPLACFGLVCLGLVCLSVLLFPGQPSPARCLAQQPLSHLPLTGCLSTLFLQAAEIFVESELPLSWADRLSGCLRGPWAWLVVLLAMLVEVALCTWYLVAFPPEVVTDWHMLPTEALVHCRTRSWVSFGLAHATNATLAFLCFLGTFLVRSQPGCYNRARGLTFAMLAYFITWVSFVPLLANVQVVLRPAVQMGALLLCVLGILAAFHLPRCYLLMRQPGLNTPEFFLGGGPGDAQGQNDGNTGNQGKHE
T1 sequence (Q8TE23 20-839 partner): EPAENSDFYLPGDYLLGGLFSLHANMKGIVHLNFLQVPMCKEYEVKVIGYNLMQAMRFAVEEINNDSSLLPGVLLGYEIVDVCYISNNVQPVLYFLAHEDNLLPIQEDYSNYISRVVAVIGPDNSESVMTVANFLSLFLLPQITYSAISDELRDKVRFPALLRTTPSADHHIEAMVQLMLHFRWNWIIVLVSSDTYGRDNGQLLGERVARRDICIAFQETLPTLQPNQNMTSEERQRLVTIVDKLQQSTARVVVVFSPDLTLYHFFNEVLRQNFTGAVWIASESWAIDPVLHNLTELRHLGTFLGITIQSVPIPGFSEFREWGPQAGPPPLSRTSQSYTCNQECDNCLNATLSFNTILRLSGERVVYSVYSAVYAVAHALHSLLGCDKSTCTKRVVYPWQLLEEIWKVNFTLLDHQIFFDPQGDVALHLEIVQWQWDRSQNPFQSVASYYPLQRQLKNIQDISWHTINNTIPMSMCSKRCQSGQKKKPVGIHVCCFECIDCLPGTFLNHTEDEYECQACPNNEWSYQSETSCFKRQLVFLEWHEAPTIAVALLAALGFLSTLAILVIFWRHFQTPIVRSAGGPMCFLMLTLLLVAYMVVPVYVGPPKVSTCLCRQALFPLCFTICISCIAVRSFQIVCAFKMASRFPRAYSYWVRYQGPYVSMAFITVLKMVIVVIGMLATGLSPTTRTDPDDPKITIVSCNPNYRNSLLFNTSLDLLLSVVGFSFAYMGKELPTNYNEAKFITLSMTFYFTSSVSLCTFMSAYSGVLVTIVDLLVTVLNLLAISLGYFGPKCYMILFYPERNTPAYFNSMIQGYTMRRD
Test: sweet receptor inhibition assay (receptor activated with 2.5 mM sucralose)
Format: cell-based
Procedure: FIG. 1 is a bar graph showing human (h), mouse (m) and chimeric mouse/human (m/h) sweet receptors activated with 2.5 mM sucralose and assayed for inhibition by certain T1R3 inhibitors or controls, measured by DF/F in %.
Chimeric receptors of T1R3 contained the extracellular portion of human or mouse receptor and the transmembrane domain and C-terminal domain from mouse or human receptor: mh indicates the presence of the mouse extracellular domain and human transmembrane domain; hm indicates the presence of the human extracellular domain and mouse transmembrane domain.

CC(C)(Oc1ccc(Cl)cc1)C(=O)O [clofibric acid]
IC50 (read-out: IC50, block of the T1R3 receptor): 28 µM | IC50 (read-out: IC50 values, human T1R3 inhibitors): 0.028 µM

From patent US20150045610A1, “METHOD OF MODIFYING SPERMATOGENESIS, SPERMIOGENESIS AND/OR FERTILITY IN MAMMALS” (Monell Chemical Senses Center, priority 2012, published 2015)
